{"source": "patent US11001795B2", "about": "“In vitro gastrointestinal model comprising lamina propria-derived cells” (EMULATE, Inc., priority 2016, dated 2021)", "key": {"[1]": {"tested_on": "Caco-2/HUVEC/LPDC microfluidic co-cultures", "assay": "Cytokine and chemokine production in microfluidic co-cultures with LP derived cells", "format": "cell-based, human", "description": "An exemplary bacteria antigen used was PAM2CSK4. […] PAM2CSK4 refers to a synthetic diacylated lipopeptide.\nIn order to determine contributory factors to the trends in permeability changes observed by combinations of prednisone treatments as in Example 5, cytokine and chemokine production were measured from media samples obtained from the microfluidic cultures as described in Example 5. After an incubation time, media samples were extracted from the microfluidic device then used for determining amounts of cytokine and chemokine produced, such as IL-6 and IL-9 in FIG. 18A-B; IL-8 and G-CSF in FIG. 19A-B; GM-CSF and MCP-1 in FIG. 20A-B: MIP1b and PDGF-AB/BB in FIG. 21A-B; and RANTES in FIG. 22. Amounts of cytokine and chemokine protein are measure in pg/ml (picogram per milliliter)."}, "[2]": {"tested_on": "Ulcerative Colitis patients", "conditions": "cited from earlier work"}, "[3]": {"tested_on": "Intestine On-Chip with TH1 or TH9 cells", "assay": "Cytokine production in Intestine On-Chip seeded with plate-differentiated TH1 or TH9 cells", "format": "cell-based, human", "conditions": "for IL-10: TH9 populations; for IL-6 protein: untreated vs PAM2CSK4 treated with and without Tofacitinib", "from_the_text": "In this example, a TH1 cell population was produced from a population of mature/naive CD4+ T cells, as described in Example 7. This population of CD4+ T cells were co-stimulated with adhered CD3 and soluble CD28 antibodies, without added cytokines, for inducing differentiation of TH1 cells on plates. Unlike co-stimulation with adhered CD3 and soluble CD28 antibodies in the presence of TGFB, IL-4, and IFNg cytokines which induced differentiation of TH9 cells, as described herein. Thus, in this example, purified CD4+ T cell populations were plated into tissue culture plates for activation and differentiation into one selected T cell subtype, e.g. TH1 in one plate, and TH9 in another plate.\nIn order to further test whether PBMCs activated and differentiated with soluble factors were capable of inducing inflammation on chips, pro-inflammatory cytokine production was compared between untreated, PAM2CSK4 treated with and without Tofacitinib.\nExperiments were designed to evaluate whether anti-CD3 and anti-CD28 co-stimulatory activation (soluble reagents) on chip would stimulate on chip T cells (previously activated and differentiated on plates) to continue functioning as activated effector cells within the chip tissue microenvironment. Further, TH1 and TH9 T cell populations underwent testing for an exacerbated response (either tissue alterations or changes in the characteristics of the T cell population) to a specific antigen stimulation, e.g. PAM2CSK4 (TLR2) bacterial agonist, with or without additional co-stimulation (i.e. using soluble reagents). Stimulation on-chip was done as a treatment on Day 7 of culture.\nEvaluation of the effects of T-cell activation on the Intestine On-Chip by perfusion of soluble immune activating factors (anti-CD3 and anti-CD28) to the media is shown in FIGS. 36A-B-39A-C. In particular, activated T-cell subsets were evaluated for disease-specific cytokine production.\nT cell subsets were purified from PBMCs as described herein, then stimulated in tissue culture plates using plate bound CD3 and soluble CD28 antibodies."}, "[4]": {"tested_on": "Caco-2 epithelial cell layer", "format": "cell-based, human", "from_the_text": "See an exemplary permeability assay method in Example 4.\nEffects of resident leukocytes isolated from LP"}, "[5]": {"tested_on": "TH1 and TH9 CD4+ T cell populations", "assay": "Bacterial antigen stimulation of TH1 and TH9 populations on cell culture plates", "format": "cell-based, human", "description": "Purified human CD4+ cells in tissue culture media, comprising soluble anti-human CD28 mAb (e.g. PharMingen, San Diego, Calif.), were added to CD3 coated plastic tissue culture plates for non-antigen-specific activation. Co-stimulation of the CD3 transmembrane signaling complex and the T cell CD28 molecule results in nonantigen specific stimulation of the TCR (CD3). After three days of incubation, the default T cell population is considered a TH1 population. After three days of co-stimulation, with or without added cytokines, cells are pipetted out of the plates, the plates are washed with media or PBS to remove any remaining cells, then harvested cells are washed at least 3 times to remove cell fragments and culture reagents, prior to use of the activated T cell population for seeding microfluidic chips on Day 0 of the chip timeline.\nIn this example, a TH1 cell population was produced from a population of CD4+ T cells obtained from a sample of PBMCs. This population of CD4+ T cells were co-stimulated with soluble CD3 and CD28 antibodies without added cytokine stimulation for inducing differentiation of TH1 cells. Unlike the co-stimulation with soluble CD3 and CD28 antibodies in the presence of TGFB, IL-4, and IFNg cytokines for inducing differentiation of TH9 cells as described herein.\nA sample of each TH cell type was exposed to PAM2CSK4, then log 2 fold changes in protein expression of either pathway molecules or IL-9 were measured and compared to duplicate samples not treated with PAM2CSK4."}, "[6]": {"tested_on": "UC patient's resident immune cells", "assay": "24 hour bacterial challenge of resident immune cells cultured on-plates, secreted cytokines", "format": "cell-based, human", "conditions": "immune cells from inflamed UC tissue, 24 hour challenge"}, "[7]": {"conditions": "prednisone alone, non-inflamed LPDC"}, "[8]": {"conditions": "prednisone, inflamed LPDCs, with and without PAM2CSK4"}, "[9]": {"conditions": "prednisone, non-inflamed and inflamed LPDCs treated with PAM2CSK4"}}, "note": "Entries after “also recorded” stand apart in the source; their conditions may differ."}
{"compound": "C[C@]12C=CC(=O)C=C1CC[C@@H]1[C@@H]2C(=O)C[C@@]2(C)[C@H]1CC[C@]2(O)C(=O)CO", "note": "[prednisone]", "values": [{"measurement": "PDGF-AA/BB production", "setting": "[1]; prednisone alone", "value": "did not appear to be a reduction in PDGF-AA/BB"}, {"measurement": "IL-8 production", "setting": "[1]; prednisone alone or PAM2CSK4, non-inflamed LPDC", "value": "did not appear to be a reduction in IL-8"}, {"measurement": "GM-CSF production", "setting": "[1]; [7]", "value": "did not appear to be a reduction in GM-CSF"}, {"measurement": "MCP-1 production", "setting": "[1]; [7]", "value": "did not appear to be a reduction in MCP-1"}, {"measurement": "GM-CSF production", "setting": "[1]; [8]", "value": "reduced GM-CSF production"}, {"measurement": "IL-8 production", "setting": "[1]; [8]", "value": "trend for reducing IL-8 production"}, {"measurement": "MCP-1 production", "setting": "[1]; [8]", "value": "reduced MCP-1 production"}, {"measurement": "IL-6 production", "setting": "[1]; prednisone, inflamed UC LPDC, endogenous or PAM2CSK4 induced", "value": "reduce IL-6 production"}, {"measurement": "IL-6 production", "setting": "[1]; prednisone, non-inflamed LPDCs", "value": "does not appear to have an effect"}, {"measurement": "PDGF-AA/BB production", "setting": "[1]; prednisone, non-inflamed LPDCs (printed in the MIP-1b section)", "value": "trend for reducing PDGF-AA/BB production"}, {"measurement": "MIP-1b production", "setting": "[1]; prednisone, non-inflamed and inflamed LPDCs (stated in heading only)", "value": "Tends to Reduce MIP-1b Production"}, {"measurement": "PDGF-AA/BB production", "setting": "[1]; [9]", "value": "trend for reducing PDGF-AA/BB production"}, {"measurement": "RANTES production", "setting": "[1]; [9]", "value": "trend for reducing RANTES production"}, {"measurement": "IL-9 production", "setting": "[1]; prednisone, non-inflamed and inflamed UC LPDC, regardless of PAM2CSK4", "value": "production is reduced; also recorded: significantly reduced"}, {"measurement": "G-CSF production", "setting": "[1]; prednisone, non-inflamed or inflamed LPDCs, with and without PAM2CSK4", "value": "trend for reducing G-CSF production"}, {"measurement": "Inflammatory responses (secreted cytokines) to PAM2CSK4 treatment", "setting": "[1]; prophylactic prednisone on-chip, noninflamed and inflamed UC resident immune cells", "value": "suppresses the inflammatory responses"}, {"measurement": "Treated patients non-responsive", "setting": "[2]; Ulcerative Colitis patients", "value": "around 16%"}, {"measurement": "Treated patients with full remission", "setting": "[2]; Ulcerative Colitis patients", "value": 54, "unit": "%"}, {"measurement": "Treated patients with partial remission", "setting": "[2]; Ulcerative Colitis patients", "value": 30, "unit": "%"}, {"measurement": "Undesirable Side Effects", "setting": "[2]; in vivo", "value": "increased Risk of infection, Weight gain, Hyperglycemia, Hypertension, Bone loss"}]}
{"compound": "Tofacitinib (citrate)", "values": [{"measurement": "IL-10", "setting": "[3]; mixture of PAM2CSK4 and Tofacitinib vs unstimulated cells", "value": "induced significant amounts"}, {"measurement": "IL-6 protein", "setting": "[3]", "value": "no significant differences"}]}
{"compound": "PAM2CSK4", "values": [{"measurement": "Permeability of Caco-2 epithelial cell layer", "setting": "[4]", "value": "increase in permeability"}, {"measurement": "Loss of barrier function", "setting": "[4]; PAM2CSK4 treatment, overnight incubation, 4 LP mil/ml", "value": "Loss of barrier function is shown"}, {"measurement": "IL-9 production, apical", "setting": "[1]; PAM2CSK4, 1 and 2 LP mil/ml", "value": "increased"}, {"measurement": "IL-9 production, basal", "setting": "[1]; PAM2CSK4, 4 LP mil/ml", "value": "higher level of IL-9 production"}, {"measurement": "IL-9 production", "setting": "[1]; PAM2CSK4, LP leukocyte co-cultures for each source", "value": "induce IL-9"}, {"measurement": "IL6 response", "setting": "[1]; PAM2CSK4, epithelial cells without LP", "value": "induce an IL6 response"}, {"measurement": "IL6 response", "setting": "[1]; PAM2CSK4, healthy LP leukocyte co-cultures", "value": "induce an IL6 response"}, {"measurement": "IL-6 production", "setting": "[1]; PAM2CSK4, inflamed LPDC samples", "value": "increased IL-6 production"}, {"measurement": "IL-6 production", "setting": "[1]; PAM2CSK4, non-inflamed LPDC samples", "value": "does not appear to have an effect"}, {"measurement": "IL-9 production", "setting": "[1]; PAM2CSK4, non-inflamed and inflamed UC LPDC co-cultures, over endogenous levels", "value": "significantly induced IL-9 production"}, {"measurement": "IL-6 production", "setting": "[1]; PAM2CSK4 at 1, 2 and 4 LP mil/ml vs co-cultures with no PAM2CSK4", "value": "higher level of IL-6 production"}, {"measurement": "Concentration of cytokine protein signaling", "setting": "[5]; PAM2CSK4, TH1 (CD) and TH9 (UC) cells on-plates", "value": "increases in the concentration of cytokine protein signaling"}, {"measurement": "IL-9", "setting": "[5]; PAM2CSK4 stimulation, TH1 populations", "value": "measurable; also recorded: did significantly increase"}, {"measurement": "IRF4", "setting": "[5]; PAM2CSK4 stimulation, TH1 populations, log 2 fold change", "value": "measurable"}, {"measurement": "IL-9, or IL-9 activation factors, log 2 fold changes", "setting": "[5]; PAM2CSK4 stimulation, TH9 populations in tissue culture plate", "value": "did not significantly increase"}, {"measurement": "IL-10", "setting": "[3]; unstimulated vs Pam stimulated", "value": "no insignificant differences"}, {"measurement": "IL-8", "setting": "[3]; antigen specific stimulation (PAM2CSK4) on-chip", "value": "increased"}, {"measurement": "IL-6 protein", "setting": "[3]", "value": "no significant differences"}, {"measurement": "Response (secreted cytokines) to PAM2CSK4", "setting": "[6]", "value": "stronger response"}, {"measurement": "Avg. Z Height (z-arrow) of Caco-2 epithelial layer", "setting": "Caco-2 epithelial layer", "value": 84, "unit": "um+/−11"}]}
